Test results from PubChem BioAssay AID2060892 (Molecular Pharmacology Branch, DTP, NCI, 2025).

Tested on: HOP-62 complex spheroids with HUVEC/MSC, viability
Test: Anticancer human tumor HOP-62 cell line growth inhibition [RAS];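 note: spheroids exposed to agents for seven days before readout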;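 for viability, T/C: 100% = DMSO vehicle control viability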
Details: for IC50: curve of first compound; for viability, T/C: stronger effect = lower value
Method in brief: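 Tumour cells grown as complex spheroids with HUVEC endothelial cells and mesenchymal stem cells, treated with RAS pathway inhibitor combinations. Each agent spans half-log steps from near clinical Cmax, or 10 microM where Cmax is unknown.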

[1] = second compound 0.00316 µM, first compound 0.00316 µM
[2] = second compound 0.00316 µM, first compound 0.01 µM
[3] = second compound 0.00316 µM, first compound 0.0316 µM
[4] = second compound 0.00316 µM, first compound 0.1 µM
[5] = second compound 0.01 µM, first compound 0.00316 µM
[6] = second compound 0.01 µM, first compound 0.01 µM
[7] = second compound 0.01 µM, first compound 0.0316 µM
[8] = second compound 0.01 µM, first compound 0.1 µM
[9] = second compound 0.0316 µM, first compound 0.00316 µM
[10] = second compound 0.0316 µM, first compound 0.01 µM
[11] = second compound 0.0316 µM, first compound 0.0316 µM
[12] = second compound 0.0316 µM, first compound 0.1 µM
[13] = second compound 0.1 µM, first compound 0.00316 µM
[14] = second compound 0.1 µM, first compound 0.01 µM
[15] = second compound 0.1 µM, first compound 0.0316 µM
[16] = second compound 0.1 µM, first compound 0.1 µM
[17] = second compound 0.316 µM, first compound 0.00316 µM
[18] = second compound 0.316 µM, first compound 0.01 µM
[19] = second compound 0.316 µM, first compound 0.0316 µM
[20] = second compound 0.316 µM, first compound 0.1 µM
[21] = second compound 1 µM, first compound 0.00316 µM
[22] = second compound 1 µM, first compound 0.01 µM
[23] = second compound 1 µM, first compound 0.0316 µM
[24] = second compound 1 µM, first compound 0.1 µM
[25] = second compound 0.00316 µM, first compound 0.316 µM
[26] = second compound 0.00316 µM, first compound 1 µM
[27] = second compound 0.01 µM, first compound 0.316 µM
[28] = second compound 0.01 µM, first compound 1 µM
[29] = second compound 0.0316 µM, first compound 0.316 µM
[30] = second compound 0.0316 µM, first compound 1 µM
[31] = second compound 0.1 µM, first compound 0.316 µM
[32] = second compound 0.1 µM, first compound 1 µM
[33] = second compound 0.316 µM, first compound 0.316 µM
[34] = second compound 0.316 µM, first compound 1 µM
[35] = second compound 1 µM, first compound 0.316 µM
[36] = second compound 1 µM, first compound 1 µM

Q: How did the IC50 (second compound 0.00316 µM) turn out when `CC(C)n1nc(-c2ccc3oc(N)nc3c2)c2c(N)ncnc21` + C=CC(=O)N1CCN(c2nc(OCC3CCCN3C)nc3c(F)c(-c4nc(N)cc(C)c4C(F)(F)F)c(Cl)cc23)C(C)C1 was run?
A: 3.91 nM

Q: What about the IC50 (second compound 0.01 µM) of the same compound?
A: 3.62 nM

Q: And the IC50 (second compound 0.0316 µM)?
A: 1.35 nM

Q: What about the IC50 (second compound 0.1 µM) of the same compound?
A: 1.29 nM

Q: What about the IC50 (second compound 0.316 µM) of the same compound?
A: 1.3 nM

Q: And the IC50 (second compound 1 µM)?
A: 1.54 nM

Q: What about the viability, T/C (second compound 0.00316 µM, first compound 0.000316 µM) of the same compound?
A: 65.2%

Q: What about the viability, T/C (second compound 0.00316 µM, first compound 0.001 µM) of the same compound?
A: 62.2%

Q: What about the viability, T/C [1] of the same compound?
A: 51.7%

Q: What about the viability, T/C [2] of the same compound?
A: 39.5%

Q: And the viability, T/C [3]?
A: 26.7%

Q: What about the viability, T/C [4] of the same compound?
A: 17.2%

Q: What about the viability, T/C (second compound 0.01 µM, first compound 0.000316 µM) of the same compound?
A: 63%

Q: What about the viability, T/C (second compound 0.01 µM, first compound 0.001 µM) of the same compound?
A: 62.7%

Q: And the viability, T/C [5]?
A: 52.6%

Q: And the viability, T/C [6]?
A: 33%

Q: What about the viability, T/C [7] of the same compound?
A: 27%

Q: And the viability, T/C [8]?
A: 17.2%

Q: What about the viability, T/C (second compound 0.0316 µM, first compound 0.000316 µM) of the same compound?
A: 61.4%

Q: What about the viability, T/C (second compound 0.0316 µM, first compound 0.001 µM) of the same compound?
A: 51.9%

Q: And the viability, T/C [9]?
A: 43%

Q: What about the viability, T/C [10] of the same compound?
A: 34.4%

Q: And the viability, T/C [11]?
A: 23.9%

Q: What about the viability, T/C [12] of the same compound?
A: 14%

Q: And the viability, T/C (second compound 0.1 µM, first compound 0.000316 µM)?
A: 59.5%

Q: What about the viability, T/C (second compound 0.1 µM, first compound 0.001 µM) of the same compound?
A: 53.2%

Q: And the viability, T/C [13]?
A: 40.6%

Q: And the viability, T/C [14]?
A: 27%

Q: What about the viability, T/C [15] of the same compound?
A: 20.8%

Q: What about the viability, T/C [16] of the same compound?
A: 14.1%

Q: What about the viability, T/C (second compound 0.316 µM, first compound 0.000316 µM) of the same compound?
A: 61.1%

Q: And the viability, T/C (second compound 0.316 µM, first compound 0.001 µM)?
A: 49.6%

Q: What about the viability, T/C [17] of the same compound?
A: 45.8%

Q: And the viability, T/C [18]?
A: 25.9%

Q: What about the viability, T/C [19] of the same compound?
A: 22.1%

Q: What about the viability, T/C [20] of the same compound?
A: 12.9%

Q: What about the viability, T/C (second compound 1 µM, first compound 0.000316 µM) of the same compound?
A: 64.9%

Q: And the viability, T/C (second compound 1 µM, first compound 0.001 µM)?
A: 50.1%

Q: And the viability, T/C [21]?
A: 47.7%

Q: What about the viability, T/C [22] of the same compound?
A: 30.2%

Q: And the viability, T/C [23]?
A: 20.9%

Q: And the viability, T/C [24]?
A: 13.2%

Q: Which IC50 (second compound 0.00316 µM) does the source give for `CC(Nc1ccc2c(c1)OCCn1cc(N3C(=O)OCC3C(F)F)nc1-2)C(N)=O` (stereo unspecified) + C=CC(=O)N1CCN(c2nc(OCC3CCCN3C)nc3c(F)c(-c4nc(N)cc(C)c4C(F)(F)F)c(Cl)cc23)C(C)C1 here?
A: 140 nM

Q: And the IC50 (second compound 0.01 µM)?
A: 63.4 nM

Q: What about the IC50 (second compound 0.0316 µM) of the same compound?
A: < 31.6 nM

Q: What about the IC50 (second compound 0.1 µM) of the same compound?
A: 34.6 nM

Q: And the IC50 (second compound 0.316 µM)?
A: < 31.6 nM

Q: And the IC50 (second compound 1 µM)?
A: < 31.6 nM

Q: What about the viability, T/C [3] of the same compound?
A: 57.6%

Q: And the viability, T/C [4]?
A: 53.6%

Q: What about the viability, T/C [25] of the same compound?
A: 44.2%

Q: What about the viability, T/C [26] of the same compound?
A: 35.5%

Q: And the viability, T/C (second compound 0.00316 µM, first compound 3.16 µM)?
A: 30.9%

Q: What about the viability, T/C (second compound 0.00316 µM, first compound 10 µM) of the same compound?
A: 19.6%

Q: What about the viability, T/C [7] of the same compound?
A: 56.5%

Q: What about the viability, T/C [8] of the same compound?
A: 44.6%

Q: And the viability, T/C [27]?
A: 37.8%

Q: And the viability, T/C [28]?
A: 32.7%

Q: What about the viability, T/C (second compound 0.01 µM, first compound 3.16 µM) of the same compound?
A: 27.7%

Q: And the viability, T/C (second compound 0.01 µM, first compound 10 µM)?
A: 18.9%

Q: And the viability, T/C [11]?
A: 47.5%

Q: What about the viability, T/C [12] of the same compound?
A: 40.9%

Q: What about the viability, T/C [29] of the same compound?
A: 36.1%

Q: What about the viability, T/C [30] of the same compound?
A: 30.2%

Q: And the viability, T/C (second compound 0.0316 µM, first compound 3.16 µM)?
A: 24.5%

Q: What about the viability, T/C (second compound 0.0316 µM, first compound 10 µM) of the same compound?
A: 16.5%

Q: What about the viability, T/C [15] of the same compound?
A: 52%

Q: What about the viability, T/C [16] of the same compound?
A: 42%

Q: And the viability, T/C [31]?
A: 39.2%

Q: And the viability, T/C [32]?
A: 32.5%

Q: What about the viability, T/C (second compound 0.1 µM, first compound 3.16 µM) of the same compound?
A: 24%

Q: And the viability, T/C (second compound 0.1 µM, first compound 10 µM)?
A: 15.7%

Q: What about the viability, T/C [19] of the same compound?
A: 47.4%

Q: And the viability, T/C [20]?
A: 37.4%

Q: And the viability, T/C [33]?
A: 32.9%

Q: What about the viability, T/C [34] of the same compound?
A: 30.6%

Q: And the viability, T/C (second compound 0.316 µM, first compound 3.16 µM)?
A: 20.5%

Q: What about the viability, T/C (second compound 0.316 µM, first compound 10 µM) of the same compound?
A: 16.8%

Q: And the viability, T/C [23]?
A: 43.6%

Q: What about the viability, T/C [24] of the same compound?
A: 40.8%

Q: And the viability, T/C [35]?
A: 32.2%

Q: What about the viability, T/C [36] of the same compound?
A: 29.6%

Q: What about the viability, T/C (second compound 1 µM, first compound 3.16 µM) of the same compound?
A: 24.3%

Q: What about the viability, T/C (second compound 1 µM, first compound 10 µM) of the same compound?
A: 13%

Q: How did the IC50 (second compound 0.00316 µM) turn out when `O=C(c1ccc(F)c(F)c1Nc1ccc(I)cc1F)N1CC(O)([C@@H]2CCCCN2)C1` + C=CC(=O)N1CCN(c2nc(OCC3CCCN3C)nc3c(F)c(-c4nc(N)cc(C)c4C(F)(F)F)c(Cl)cc23)C(C)C1 was run?
A: 46.5 nM

Q: What about the IC50 (second compound 0.01 µM) of the same compound?
A: 38.3 nM

Q: And the IC50 (second compound 0.0316 µM)?
A: 20 nM

Q: And the IC50 (second compound 0.1 µM)?
A: 22.7 nM

Q: And the IC50 (second compound 0.316 µM)?
A: 14 nM

Q: What about the IC50 (second compound 1 µM) of the same compound?
A: 17.6 nM

Q: What about the viability, T/C [1] of the same compound?
A: 77.1%

Q: And the viability, T/C [2]?
A: 77.8%

Q: And the viability, T/C [3]?
A: 55.2%

Q: What about the viability, T/C [4] of the same compound?
A: 36.5%

Q: And the viability, T/C [25]?
A: 20%

Q: What about the viability, T/C [26] of the same compound?
A: 19.2%

Q: What about the viability, T/C [5] of the same compound?
A: 68.2%

Q: And the viability, T/C [6]?
A: 65.5%

Q: What about the viability, T/C [7] of the same compound?
A: 52.2%

Q: And the viability, T/C [8]?
A: 35.1%

Q: What about the viability, T/C [27] of the same compound?
A: 18.8%

Q: What about the viability, T/C [28] of the same compound?
A: 15%

Q: And the viability, T/C [9]?
A: 68.1%

Q: And the viability, T/C [10]?
A: 60.1%

Q: And the viability, T/C [11]?
A: 42.2%

Q: What about the viability, T/C [12] of the same compound?
A: 30.6%

Q: And the viability, T/C [29]?
A: 15.1%

Q: And the viability, T/C [30]?
A: 13.3%

Q: What about the viability, T/C [13] of the same compound?
A: 64.8%

Q: What about the viability, T/C [14] of the same compound?
A: 54.5%

Q: And the viability, T/C [15]?
A: 49.3%

Q: What about the viability, T/C [16] of the same compound?
A: 27.8%

Q: What about the viability, T/C [31] of the same compound?
A: 15.7%

Q: And the viability, T/C [32]?
A: 10.7%

Q: And the viability, T/C [17]?
A: 57%

Q: And the viability, T/C [18]?
A: 57.2%

Q: What about the viability, T/C [19] of the same compound?
A: 38.7%

Q: And the viability, T/C [20]?
A: 28%

Q: And the viability, T/C [33]?
A: 16.6%

Q: What about the viability, T/C [34] of the same compound?
A: 10.5%

Q: And the viability, T/C [21]?
A: 63.6%

Q: What about the viability, T/C [22] of the same compound?
A: 59.4%

Q: And the viability, T/C [23]?
A: 40.6%

Q: And the viability, T/C [24]?
A: 24.3%

Q: What about the viability, T/C [35] of the same compound?
A: 13.1%

Q: What about the viability, T/C [36] of the same compound?
A: 9.01%
